Assay [1] concerns the target T1, human PPARdelta (Homo sapiens, UniProt Q03181).
T1 construct: human PPARdelta receptor (amino acids S139-Y441); expressed in transfected cells; plasmid pcDNA3
T1 sequence (Q03181 139-441): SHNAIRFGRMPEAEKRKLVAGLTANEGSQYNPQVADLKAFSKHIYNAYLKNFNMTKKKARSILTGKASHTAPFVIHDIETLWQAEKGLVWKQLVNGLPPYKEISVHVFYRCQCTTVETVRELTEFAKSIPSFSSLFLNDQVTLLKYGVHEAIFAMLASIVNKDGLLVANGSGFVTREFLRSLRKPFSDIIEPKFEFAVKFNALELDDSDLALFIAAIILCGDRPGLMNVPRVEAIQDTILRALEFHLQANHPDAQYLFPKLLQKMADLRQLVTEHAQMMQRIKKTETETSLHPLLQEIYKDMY
The assay can be described thus: Cellular PPARdelta assay (HEK PPARdelta reporter cell line, luciferase). The class given is cell-based. As to conditions: 24 h incubation. The procedure: The raw data from the luminometer are transferred into a Microsoft Excel file. Dose-effect plots and EC50 values of PPAR agonists are calculated using the XL.Fit program as specified by the manufacturer (IDBS). […] Compounds of the invention of the formula I activate the PPARalpha receptor. Determination of EC50 values of PPAR agonists in the cellular PPARdelta assay The potency of substances which bind to human PPARdelta and activate it in an agonistic manner is analyzed using a stably transfected HEK cell line (HEK=human embryo kidney) which is referred to here as PPARdelta reporter cell line. In analogy to the assay described for PPARalpha, the PPARdelta reporter cell line also contains two genetic elements, a luciferase reporter element (pdeltaM-GAL4-Luc-Zeo) and a PPARdelta fusion protein (GR-GAL4-humanPPARdelta-LBD) which mediates expression of the luciferase reporter element depending on a PPARdelta ligand. The stably and constitutively expressed fusion protein GR-GAL4-humanPPARdelta-LBD binds in the cell nucleus of the PPARdelta reporter cell line via the GAL4 protein portion to the GAL4 DNA binding motifs 5′-upstream of the luciferase reporter element which is stably integrated in the genome of the cell line. There is only little expression of the luciferase reporter gene in the absence of a PPARdelta ligand if fatty acid-depleted fetal calf serum (cs-FCS) is used in the assay. PPARdelta ligands bind and activate the PPARdelta fusion protein and thereby stimulate expression of the luciferase reporter gene. The luciferase which is formed can be detected by means of chemiluminescence via an appropriate substrate.
The production of the stable PPARdelta reporter cell line is based on a stable HEK-cell clone which was stably transfected with a luciferase reporter element. This step was already described above in the section “construction of the PPARalpha reporter cell line”. In a second step, the PPARdelta fusion protein (GR-GAL4-humanPPARdelta-LBD was stably introduced into this cell clone. For this purpose, the cDNA coding for the N-terminal 76 amino acids of the glucocorticoid receptor (Accession # P04150) was linked to the cDNA section coding for amino acids 1-147 of the yeast transcription factor GAL4 (Accession # P04386). The cDNA of the ligand-binding domain of the human PPARdelta receptor (amino acids S139-Y441; Accession # L07592) was cloned in at the 3′-end of this GR-GAL4 construct. The fusion construct prepared in this way (GR-GAL4-humanPPARdelta-LBD) was recloned into the plasmid pcDNA3 (Invitrogen) in order to enable constitutive expression by the cytomegalovirus promoter. This plasmid was linearized with a restriction endonuclease and stably transfected into the previously described cell clone containing the luciferase reporter element. The resulting PPARdelta reporter cell line which contains a luciferase reporter element and constitutively expresses the PPARdelta fusion protein (GR-GAL4-human PPARdelta-LBD) was isolated by selection with zeocin (0.5 mg/ml) and G418 (0.5 mg/ml).
The activity of PPARdelta agonists is determined in a 3-day assay in exact analogy to the procedure already described for the PPARalpha reporter cell line except that the PPARdelta reporter cell line and a specific PPARdelta agonist was used as a standard to control test efficacy. PPARdelta EC50 values in the range from 0.3 nM to >10 μM were measured for the PPAR agonists of Examples 1 to 69 described in this application. Compounds of the invention of the formula I activate the PPARdelta receptor.

In assay [2] the target is T2, human PPARalpha (Homo sapiens, UniProt Q07869).
T2 construct: human PPARalpha receptor (amino acids S167-Y468); expressed in transfected cells; plasmid pcDNA3
T2 sequence (Q07869 167-468): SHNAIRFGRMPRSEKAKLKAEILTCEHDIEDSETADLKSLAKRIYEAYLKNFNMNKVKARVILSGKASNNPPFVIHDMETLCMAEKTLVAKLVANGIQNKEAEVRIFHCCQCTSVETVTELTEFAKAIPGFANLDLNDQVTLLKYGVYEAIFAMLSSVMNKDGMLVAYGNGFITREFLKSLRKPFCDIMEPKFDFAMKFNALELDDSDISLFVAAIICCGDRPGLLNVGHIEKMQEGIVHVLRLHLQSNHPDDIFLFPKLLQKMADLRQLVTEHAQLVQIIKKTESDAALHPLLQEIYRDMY
The experiment in a line: Cellular PPARalpha assay (HEK PPARalpha reporter cell line, luciferase). The class given is cell-based. The following applies: 24 h incubation. As for the experimental part:
The activity of the compounds was tested as follows. The potency of substances which bind to human PPARalpha and activate it in an agonistic manner is analyzed using a stably transfected HEK cell line (HEK=human embryo kidney) which is referred to here as PPARalpha reporter cell line. It contains two genetic elements, a luciferase reporter element (pdeltaM-GAL4-Luc-Zeo) and a PPARalpha fusion protein (GR-GAL4-humanPPARalpha-LBD) which mediates expression of the luciferase reporter element depending on a PPARalpha ligand. The stably and constitutively expressed fusion protein GR-GAL4-humanPPARalpha-LBD binds in the cell nucleus of the PPARalpha reporter cell line via the GAL4 protein portion to the GAL4 DNA binding motifs 5′-upstream of the luciferase reporter element which is stably integrated in the genome of the cell line. There is only weak expression of the luciferase reporter gene in the absence of a PPARalpha ligand if fatty acid-depleted fetal calf serum (cs-FCS) is used in the assay. PPARalpha ligands bind and activate the PPARalpha fusion protein and thereby stimulate the expression of the luciferase reporter gene. The luciferase which is formed can be detected by means of chemiluminescence via an appropriate substrate.
The PPARalpha reporter cell line was prepared in two stages. Firstly, the luciferase reporter element was constructed and stably transfected into HEK cells. For this purpose, five binding sites of the yeast transcription factor GAL4 (Accession # AF264724) were cloned in 5′-upstream of a 68 bp-long minimal MMTV promoter (Accession # V01175). The minimal MMTV promoter section contains a CCAAT box and a TATA element in order to enable efficient transcription by RNA polymerase II. The cloning and sequencing of the GAL4-MMTV construct took place in analogy to the description of Sambrook J. et. al. (Molecular cloning, Cold Spring Harbor Laboratory Press, 1989). Then the complete Photinus pyralis gene (Accession # M15077) was cloned in 3′-downstream of the GAL4-MMTV element. After sequencing, the luciferase reporter element consisting of five GAL4 binding sites, MMTV promoter and luciferase gene was recloned into a plasmid which confers zeocin resistance in order to obtain the plasmid pdeltaM-GAL4-Luc-Zeo. This vector was transfected into HEK cells in accordance with the statements in Ausubel, F. M. et al. (Current protocols in molecular biology, Vol. 1-3, John Wiley & Sons, Inc., 1995).
In a second step, the PPARalpha fusion protein (GR-GAL4-humanPPARalpha-LBD was introduced into the stable cell clone described. For this purpose, initially the cDNA coding for the N-terminal 76 amino acids of the glucocorticoid receptor (Accession # P04150) was linked to the cDNA section coding for amino acids 1-147 of the yeast transcription factor GAL4 (Accession # P04386). The cDNA of the ligand-binding domain of the human PPARalpha receptor (amino acids S167-Y468; Accession # S74349) was cloned in at the 3′-end of this GR-GAL4 construct. The fusion construct prepared in this way (GR-GAL4-humanPPARalpha-LBD) was recloned into the plasmid pcDNA3 (Invitrogen) in order to enable constitutive expression therein by the cytomegalovirus promoter. This plasmid was linearized with a restriction endonuclease and stably transfected into the previously described cell clone containing the luciferase reporter element. The finished PPARalpha reporter cell line which contains a luciferase reporter element and constitutively expresses the PPARalpha fusion protein (GR-GAL4-human PPARalpha-LBD) was isolated by selection with zeocin (0.5 mg/ml) and G418 (0.5 mg/ml).
The activity of PPARalpha agonists is determined in a 3-day assay which is described below: […]

For assay [3], the target named is T3, PPARdelta (Mus musculus, UniProt P35396).
T3 sequence (P35396 1-440): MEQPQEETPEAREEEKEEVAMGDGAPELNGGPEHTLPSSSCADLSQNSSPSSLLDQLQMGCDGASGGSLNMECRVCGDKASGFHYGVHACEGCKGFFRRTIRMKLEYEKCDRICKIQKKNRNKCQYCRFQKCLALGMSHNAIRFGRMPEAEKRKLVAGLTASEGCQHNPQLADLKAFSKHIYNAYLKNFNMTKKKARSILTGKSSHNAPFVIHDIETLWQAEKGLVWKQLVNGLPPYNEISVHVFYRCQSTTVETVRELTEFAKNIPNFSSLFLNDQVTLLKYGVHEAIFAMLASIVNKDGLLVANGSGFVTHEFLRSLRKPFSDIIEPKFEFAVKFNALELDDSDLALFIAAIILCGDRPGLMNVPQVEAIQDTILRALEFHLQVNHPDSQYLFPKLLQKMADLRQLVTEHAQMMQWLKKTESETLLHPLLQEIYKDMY
As to conditions: diabetic animal model; cited from earlier work.

Assay [4] deals with PPARdelta. As to conditions: obese, insulin resistant rhesus monkeys; cited from earlier work.
Assay [5] has as its system PPARdelta/PPARalpha. The following applies: two weeks clinical trials in healthy volunteers; cited from earlier work.
The subject of assay [6] is PPARdelta/PPARalpha. As to conditions: rhesus and cynomolgus monkeys; cited from earlier work.

SMILES strings stand for the structures. Where two headings read alike, the source gives them in different places. Some results are limits rather than exact numbers.

By EC50 is commonly meant the concentration giving half of the maximal effect. Read a high EC50 as lower potency in that assay. For the compound `CCC(Oc1ccc(-c2noc(=O)[nH]2)c(OC(F)F)c1)c1sc([C@H]2CC[C@H](C(F)(F)F)CC2)nc1CN1CCC(C(F)(F)F)CC1` (stereo partly drawn) [Example 61, 3-(2-Difluoromethoxy-4-{1-[2-(trans-1,4-trifluoromethyl-cyclohexyl)-4-(4-trifluoromethyl-piperidin-1-ylmethyl)-thiazol-5-yl]-propoxy}-phenyl)-4H-1,2,4-oxadiazol-5-one], the EC50 was 7 nM in assay [1] and over 33000 nM in assay [2].

Take `O=c1[nH]c(-c2cc(F)c(OCc3sc([C@H]4CC[C@H](C(F)(F)F)CC4)nc3CN3CCC(C(F)(F)F)CC3)cc2OC(F)F)no1` [Example 62, 3-{2-Difluoromethoxy-5-fluoro-4-[2-(trans-1,4-trifluoromethyl-cyclohexyl)-4-(4-trifluoromethyl-piperidin-1-ylmethyl)-thiazol-5-ylmethoxy]-phenyl}-4H-1,2,4-oxadiazol-5-one]: the EC50 was 52 nM in assay [1] and over 33000 nM in assay [2].

For `CCC(Oc1ccc(-c2noc(=O)[nH]2)c(F)c1)c1sc([C@H]2CC[C@H](C(F)(F)F)CC2)nc1C` (stereo partly drawn) [Example 66, 3-(2-Fluoro-4-{1-[4-methyl-2-(trans-1,4-trifluoromethyl-cyclohexyl)-thiazol-5-yl]-propoxy}-phenyl)-4H-1,2,4-oxadiazol-5-one], the figures for the EC50 in assay [1] and in assay [2] were 11 nM and 304 nM, respectively.

Turning to `CCC(Oc1ccc(-c2noc(=O)[nH]2)c(F)c1)c1sc([C@H]2CC[C@H](C(F)(F)F)CC2)nc1CN1CCC(C(F)(F)F)CC1` (stereo partly drawn) [Example 68, 3-(2-Fluoro-4-{1-[2-(trans-1,4-trifluoromethyl-cyclohexyl)-4-(4-trifluoromethyl-piperidin-1-ylmethyl)-thiazol-5-yl]-propoxy}-phenyl)-4H-1,2,4-oxadiazol-5-one], the EC50 is 130 nM in assay [1] and over 33000 nM in assay [2].

As to `CCCc1c(OCCCOc2ccc(OCC(=O)O)cc2)ccc(C(C)=O)c1O` [Example L-165041], in assay [3], the plasma cholesterol result is recorded as “raises plasma cholesterol”.

For `Cc1cc(SCc2sc(-c3ccc(C(F)(F)F)cc3)nc2C)ccc1OCC(=O)O` [GW501516], in assay [4], the HDL-cholesterol result is on record as “raises HDL-cholesterol”; the “plasma LDL-cholesterol, triglycerides and insulin levels” value was “decreases plasma LDL-cholesterol, triglycerides and insulin levels”.

As to `CCCc1c(OCCCSc2nnc(SCC(=O)O)s2)ccc(C(C)=O)c1O` [YM-16638], the plasma lipids entry in assay [5] is reported as “acts in a similar manner”; in assay [6], “significantly lowers plasma lipids”.

The values above are taken from US7709481B2, “Phenyl-1,2,4-oxadiazolone derivatives, processes for their preparation and methods for their use as pharmaceuticals” (Sanofi-Aventis, priority 2005, dated 2010).
